Where two headings read alike, the source gives them in different places.
Assays:
Mfn2 null MEFs = experiment: Mitochondrial elongation (aspect ratio) fusogenicity assay; format: cell-based, mouse; details: for Fusogenic activity: mitochondrial elongation / fusion; for EC50: Mus musculus, increase in mitochondrial aspect ratio
MFN2 HR2 = biological target: T1, MFN2 HR2 (Homo sapiens, UniProt O95140); experiment: HR1 peptide-HR2 target binding assay; details: FITC minipeptide 374-384 at HR2 binding site
T1 construct: host or cells: synthetic peptide (note in the listing); immobilised on Ni-NTA resin
T1 sequence (O95140 with tags, fused parts or gaps limits assumed): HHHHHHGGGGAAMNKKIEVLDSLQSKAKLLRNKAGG
Excerpt: The Mfn-derived fusion-promoting and -inhibiting mini-peptides (simulated to obtain the chemical Mfn agonists in TABLE 1 and TABLE 2) were modified from amino acid heptad repeats (HR) in the HR1 domain and predicted to interact with their counterparts in the carboxyl terminus HR2 domain within the Mfn stalk region (see e.g., FIG. 1, top panel). A high-throughput binding assay was designed whereby the target HR2 peptide sequences, modified to include amino terminal 6×His tags and Gly linkers, were bonded to Ni-chelate resin (20 μg/ml) and used as immobilized “receptor” for amino-FITC-tagged Mfn2 374-384 (agonist ligand) in which the Ser analogous to Ser378 was replaced with Asp to confer the negative charge essential for activity. For antagonist studies the ligand was amino-FITC-tagged Mfn2 406-418. The FITC peptide ligands are suspended at 1 mM in 30% DMSO, 70% water (to minimize spontaneous aggregation) and diluted into binding buffer (de-ionized water) to a final concentration of 25 μM in the presence or absence of competing compound. Dose-dependent loss of resin-bound FITC signal (485 nm excitation/538 nm emission) measured in a 96 well spectrofluorometer represents binding of compound to its HR2 target (see e.g., FIG. 10, FIG. 11). Either the ligand peptide or the receptor peptide can be modified to represent mutations, variations, or posttranslational modifications of Mfn2. […]
Target HR2 peptide sequence modified to include amino terminal 6×His tags and Gly linkers, were bonded to Ni-NTA resin (4.4 μg/ml) (Quiagen) and used as immobilized “receptor” for amino-FITC-tagged Mfn2 374-384 (ligand) in which the Ser analogous to Ser378 was replaced with Asp to confer the negative charge essential for activity. […] Resin-bound FITC signal (485 nm excitation/538 nm emission) measured in a 96 well spectrofluorometer (Spectramax M5e, Molecular Devices) represented binding to HR2 target. Competition binding isotherms were plotted and IC50 values calculated using Prism 7 (GraphPad).

[1] = test system: MFN2 Asp^378 and Ala^378 mutants; experiment: Mitochondrial fusion with MFN2 Ser378 mutants (Asp378, Ala378); format: cell-based, human
MFN2 T105M = experiment: Reversal of mitochondrial dysmorphology provoked by MFN2 T105M in MEFs; format: cell-based, mouse
[2] = test system: cultured neurons expressing MFN2 T105M; experiment: Cultured mouse neurons expressing CMT2A mutant MFN2; format: cell-based
Description: Neonatal mouse hippocampal neurons were cultured from brains of one day old Mfn2 T105M or non-transgenic sibling mouse pups as described. After 10 days of differentiating culture neurons were infected with Adeno-Cre to induce Mfn2 T105M expression or Adeno-βgal as a control (50 MOI). After an additional 72 hours mitofusin agonists or DMSO vehicle were added. For static confocal imaging neuronal mitochondria were labeled with adenoviral-expressed mitoGFP plus TMRE. Autophagy was measured by LC3 aggregation in neurons infected with adenoviral LC3-GFP. For time-lapse studies of mitochondrial trafficking bi-cistronic Adeno-Cre/GFP marked Cre expression and mitochondria were labeled with adeno-mitoDsRed. Confocal live cell images were acquired with a time-lapse of 1 frame every 90 seconds for 1 hour.

[3] = test system: MFN2 T105M sciatic nerves; experiment: Sciatic nerve axonal mitochondrial motility, agonist applied to the excised nerve; design: species or system mouse
Description: Sciatic nerves of 12-18 week old male or female MFN2 T105M mice were removed en bloc with the lumbar spine and axotomy at the tibial nerve, stained with TMEM ([…]) for 30 minutes in prewarmed Neurobasal Medium without phenol red (Thermo Fisher Scientific) at room temperature, washed, and maintained on the stage of a Nikon A1Rsi Confocal Microscope at 37 degrees C. for time-lapse confocal studies. Images were acquired with a 40×oil immersion objective at 1 frame every 5 or 10 seconds for sequential 10 minute periods. Mitofusin agonist chimera B-A/I was added after the first 10 minute imaging period (final concentrations of […]) and nerve axons imaged for another 40 minutes. Because there was no difference in mitochondrial trafficking or response to mitofusin agonist between male and female mice, the data were combined.

[4] = test system: ALS and HD patient-derived fibroblasts; experiment: Mitochondrial health assays in ALS and HD patient-derived fibroblasts; format: cell-based, human
Description: HD patient-derived fibroblast cell lines (GM04693 from patient and GM05539 from patient) were purchased from Invitrogen. ALS patient-derived fibroblasts (ALS 1: ND29509 from patient having SOD1 mutation; ALS 2: ND30327 having FUS1 mutation) and fibroblasts of control healthy individuals were purchased from Coriell Institute, USA. All fibroblast cultures were maintained in MEM supplemented with 15% (v/v) FBS and 1% (v/v) penicillin/streptomycin at 37° C. in 5% CO2-95% air. Galactose media was used, to increase mitochondria-dependent metabolism oxidative phosphorylation. Human fibroblasts were switched to grow for 48 h in DMEM deprived of glucose and containing galactose (4.5 g/I), 1% FBS, 5 mM sodium pyruvate and 2 mM L-glutamine for the studies.
Cells cultured in 8-well chamber slides were washed with cold PBS, fixed in 4% formaldehyde, and permeabilized with 0.1% Triton X-100. After incubation with 2% normal goat serum (to block nonspecific staining), fixed cells were incubated overnight at 4° C. with TOM20 antibody (1:500) (Santa Cruz, USA). Cells were washed with PBS and incubated for 60 minutes with FITC-conjugated goat anti-rabbit IgG (1:500 dilution). The cells were then washed gently with PBS and counterstained with Hoechst 33342 (1:10,000 dilution, Molecular Probes) to visualize nuclei. The coverslips were mounted with Slow-fade anti-fade reagent (Invitrogen), and images were acquired at 60×using an All-in-One Fluorescence Microscope BZ-X700 (Keyence).
Cells were incubated with tetra-methyl-rhodamine methyl ester (TMRM, 25 nM, Invitrogen) in HBSS (Hank's balanced salt solution) for 30 min at 37° C., per the manufacture's protocol, and the fluorescence was analyzed to measure mitochondrial membrane potential. All data were normalized with respect to the fluorescence intensity of control cells. To determine mitochondrial ROS production, cells were treated with 5 μM MitoSOX™ Red, a mitochondrial superoxide indicator (Invitrogen) for 20 min at 37° C., according to the manufacturer's protocol, and fluorescence was analyzed using SpectraMax M2e (Molecular devices).

[5] = Plasma protein binding (equilibrium dialysis); format: in vitro ADME
Description: (§1) Plasma protein binding was measured using equilibrium dialysis; % bound=(1-[free compound in dialysate]/[total compound in retentate])×100. Plasma stability of […] compound in clarified freeze-thawed plasma was assessed by LC-MS/MS of supernatants after protein precipitation; 120 min data are reported for studies including 0, 10, 30, 60, and 120 min. Microsome stability of […] compound in liver microsomes (0.5 mg/ml) after 0, 5, 10, 20, 30, 60 min. incubation was assessed by LC/MS/MS of reaction extracts.

[6] = Plasma protein binding, mouse; format: in vitro ADME; details: read-out: plasma protein bound in the mouse (converted)
Description: as §1

[7] = Liver microsome stability; format: in vitro ADME
Description: as §1

[8] = Parallel artificial membrane permeability assay (PAMPA); format: in vitro ADME
P-gp/MDR1 = P-gp/MDR1 (Homo sapiens, UniProt P08183); experiment: P-gp/MDR1 transport; format: in vitro ADME
Chain of P-gp/MDR1 (P08183 whole entry): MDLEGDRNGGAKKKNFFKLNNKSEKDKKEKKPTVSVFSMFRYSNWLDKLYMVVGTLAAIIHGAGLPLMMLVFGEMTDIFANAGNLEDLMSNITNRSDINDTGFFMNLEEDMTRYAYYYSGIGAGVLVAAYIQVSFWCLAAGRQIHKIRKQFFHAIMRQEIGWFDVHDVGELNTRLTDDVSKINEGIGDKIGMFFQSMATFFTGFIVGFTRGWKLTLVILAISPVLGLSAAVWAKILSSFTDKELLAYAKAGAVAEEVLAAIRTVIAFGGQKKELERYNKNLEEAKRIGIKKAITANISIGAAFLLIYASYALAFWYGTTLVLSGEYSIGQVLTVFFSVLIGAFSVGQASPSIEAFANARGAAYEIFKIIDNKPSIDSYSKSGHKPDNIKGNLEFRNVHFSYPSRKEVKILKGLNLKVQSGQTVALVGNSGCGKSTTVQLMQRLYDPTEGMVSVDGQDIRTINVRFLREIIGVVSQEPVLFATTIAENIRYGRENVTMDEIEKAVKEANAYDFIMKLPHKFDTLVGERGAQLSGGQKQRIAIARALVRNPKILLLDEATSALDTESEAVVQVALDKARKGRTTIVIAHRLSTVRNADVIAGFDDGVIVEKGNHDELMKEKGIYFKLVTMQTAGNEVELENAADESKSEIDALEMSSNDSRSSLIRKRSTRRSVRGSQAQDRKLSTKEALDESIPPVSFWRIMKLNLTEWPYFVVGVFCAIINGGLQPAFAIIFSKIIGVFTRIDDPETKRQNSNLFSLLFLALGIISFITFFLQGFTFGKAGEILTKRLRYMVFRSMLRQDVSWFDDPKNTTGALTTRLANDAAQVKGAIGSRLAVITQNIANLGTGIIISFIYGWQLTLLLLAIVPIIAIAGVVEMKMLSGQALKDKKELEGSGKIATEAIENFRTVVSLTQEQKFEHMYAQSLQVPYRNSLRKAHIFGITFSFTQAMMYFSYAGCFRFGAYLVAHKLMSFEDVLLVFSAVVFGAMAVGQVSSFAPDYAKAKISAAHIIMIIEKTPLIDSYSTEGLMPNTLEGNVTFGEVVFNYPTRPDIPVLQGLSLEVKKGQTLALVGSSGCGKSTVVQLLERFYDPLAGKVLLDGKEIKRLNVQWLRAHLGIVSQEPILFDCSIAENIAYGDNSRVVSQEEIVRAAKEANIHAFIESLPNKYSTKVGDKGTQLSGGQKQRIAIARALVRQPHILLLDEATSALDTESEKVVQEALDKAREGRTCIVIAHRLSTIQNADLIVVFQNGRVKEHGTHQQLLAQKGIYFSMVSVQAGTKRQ

[9] = In vivo pharmacokinetics in mice; details: mouse; for concentration at 2 h: plasma, intramuscular, 1 mg/kg
Description: (A) Three mice each were administered 1 mg/kg agonist IV, IP, or IM. Graphs are mean plasma concentration for each administration route. (B) Results for individual mice were administered 1 mg/kg indicated agonist IM.

CMT2A MFN2 T105M mice = experiment: In vivo sciatic nerve mitochondrial motility in CMT2A mice; design: species or system mouse; details: IM, 2 mg/kg, assessed 4 hours later
Description: Sciatic nerve mitochondrial motility was measured 4 hours later. Results described in FIG. 58 are for 2 CMT2A mice per group.

[10] = Solubility in 50 mM phosphate buffer (pH 7.4); format: physicochemical
Plasma stability = format: in vitro ADME
Description: as §1

[11] = test system: Mfn1/Mfn2 double null MEFs; experiment: Mitochondrial elongation in Mfn1/Mfn2 double null MEFs; format: cell-based, mouse
Excerpt: A cultured murine embryonic fibroblast assay system was used in which mitochondrial elongation (an increase in aspect ratio) reflects enhanced mitochondrial fusion.

[12] = ALS and HD patient-derived fibroblasts

Plasma protein binding [5] | Liver microsome stability [7] | P-gp mediated transport (P-gp/MDR1) | SMILES | Fusogenic activity (Mfn2 null MEFs) | Selectivity of fusogenic effect for phosphomimic Asp378 vs nonphosphorylatable Ala378 MFN2 [1] | Mitochondrial motility in MFN2 T105M sciatic nerves [3] | EC50 (Mfn2 null MEFs) [nM] | Passive diffusion across lipid-infused artificial membrane (PAMPA, words) [8] | other results
– | – | – | CC1CCCCC1NC(=O)NCCSc1nnc(C2CC2)n1-c1ccccc1 (racemic) [B-A/I, 1-(2-((5-cyclopropyl-4-phenyl-4H-1,2,4-triazol-3-yl)thio)ethyl)-3-(2-methylcyclohexyl)urea] | potently stimulated mitochondrial fusion | non-selective | restored mitochondrial motility to within normal levels | – | – | Binding to / competition at HR2 target (MFN2 HR2): competed for minipeptide binding at the MFN2 HR2 interaction site; Reversal of mitochondrial dysmorphology provoked by MFN2 T105M (MFN2 T105M): as effective as the combination of Cpds A+B; Mitochondrial motility in cultured neurons expressing MFN2 T105M [2]: restored mitochondrial motility; Mitochondrial ROS levels [4, 12]: reduces mitochondrial ROS levels; Mitochondrial membrane potential [4, 12]: improves mitochondrial membrane potential; Mitochondrial structural defects [4, 12]: enhances mitochondrial structural defects; Effect on fibroblasts from control subjects ([4]; control fibroblasts): has no effect on fibroblasts from control subjects
low plasma protein binding | stability in the liver microsome assay | no reverse transport by P-gp | CCn1c(CCCNC(=O)NC2CCOCC2)nnc1C1CC1 [Mitolityn-4, 1-(3-(5-cyclopropyl-4-ethyl-4H-1,2,4-triazol-3-yl)propyl)-3-(tetrahydro-2H-pyran-4-yl)urea] | highest potency | – | – | ~3 | no passive diffusion across lipid membrane | fraction unbound [6]: 0.888; concentration at 2 h ([9]; 1 mg/kg IM, read-out: total plasma drug concentration 2 hours after IM administration): 7.5 ng/mL; concentration at 2 h ([9]; IM, from total concentration and protein binding, read-out: free drug concentration 2 hours after IM administration): ~6.66 ng/mL; concentration at 2 h ([9]; IM, read-out: free drug concentration 2 hours after IM administration): ~20 nM
– | – | actively transported by P-gp/MDR1 | CC1CCCCC1NC(=O)NCCCc1nnc(C2CC2)n1-c1ccccc1 (stereo not drawn) [Regeneurin-C, 1-(3-(5-cyclopropyl-4-phenyl-4H-1,2,4-triazol-3-yl)propyl)-3-(2-methylcyclohexyl)urea] | – | – | – | – | excellent passive diffusion | total plasma drug concentration 2 hours after IM administration ([9]; 1 mg/kg IM): undetectable
– | – | – | O=C(NCCCc1nnc(C2CC2)n1-c1ccccc1)NC1CCOCC1 [Regeneurin-C/O, 1-(3-(5-cyclopropyl-4-phenyl-4H-1,2,4-triazol-3-yl)propyl)-3-(tetrahydro-2H-pyran-4-yl)urea] | – | – | – | – | – | Sciatic nerve axon mitochondrial motility in vivo (CMT2A MFN2 T105M mice): reverses the characteristic mitochondrial immobility in sciatic nerve axons
highly protein bound | rapidly degraded by liver microsomes | – | CC1CCCCC1NC(=O)NCCSc1nnc(C2CC2)n1-c1ccccc1 (stereo not drawn) [Regeneurin-S, 1-(2-((5-cyclopropyl-4-phenyl-4H-1,2,4-triazol-3-yl)thio)ethyl)-3-(2-methylcyclohexyl)urea] | – | – | rapidly correct mitochondrial dysmotility | – | – | Solubility [10]: soluble; Plasma stability (Plasma stability): stable in plasma
– | – | – | CC1CCCCC1NC(=O)NCCSCc1ccccc1 (stereo not drawn) [compound A, 1-[2-(benzylsulfanyl)ethyl]-3-(2-methylcyclohexyl)urea] | induced mitochondrial elongation | specific for the Asp^378 mutant of MFN2 | – | 100 to 200 | – | Mitochondrial elongation in absence of both mitofusins [11]: did not occur in the absence of both of their mitofusin targets

— patent publication US10844023B2 (Washington University, priority 2017, dated 2020)
